Laboratory results published in patent publication US20060040984A1, “Novel piperidine derivatives for use in the treatment of chemokine medicated disease states” (priority 2002, published 2006).
Values belong to the compound of their own block, whether it stands above or below them.

Assays:
human H1 receptor = target: T1, human H1 receptor (Homo sapiens, UniProt P35367); assay: Histamine H1 receptor binding, displacement of [3H]-pyrilamine; conditions: 1 nM [3H]-pyrilamine; membranes of recombinant CHO-K1 cells expressing human H1 receptor; read-out: H1 pKi/[1328_S] (converted)
T1 construct: purchased Euroscreen SA, Brussels, Belgium ES-390-M; host or cells: recombinant CHO-K1 cells (membranes)
T1 sequence (P35367 whole entry): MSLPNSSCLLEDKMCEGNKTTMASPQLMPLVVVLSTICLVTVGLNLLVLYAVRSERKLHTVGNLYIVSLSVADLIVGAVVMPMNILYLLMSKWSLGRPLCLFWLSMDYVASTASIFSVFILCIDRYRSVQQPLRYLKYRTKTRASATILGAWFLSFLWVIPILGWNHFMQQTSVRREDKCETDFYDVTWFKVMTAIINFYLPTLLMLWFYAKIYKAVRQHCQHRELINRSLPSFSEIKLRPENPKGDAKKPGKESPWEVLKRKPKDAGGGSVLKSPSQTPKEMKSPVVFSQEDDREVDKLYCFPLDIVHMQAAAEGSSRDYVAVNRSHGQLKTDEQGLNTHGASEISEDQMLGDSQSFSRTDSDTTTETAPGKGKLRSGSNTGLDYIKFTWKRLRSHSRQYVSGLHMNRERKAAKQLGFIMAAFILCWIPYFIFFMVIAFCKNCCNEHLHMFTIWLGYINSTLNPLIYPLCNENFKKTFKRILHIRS

CCR3 = target: T2, CCR3 (Homo sapiens, UniProt P51677); assay: Human eosinophil chemotaxis (eotaxin mediated); assay type: cell-based; conditions: read-out: % inhibition at 1 μM, 1 μM compound, human eosinophils
T2 construct: Human eosinophils were isolated from EDTA anticoagulated peripheral blood; endogenous in cells; host or cells: human peripheral blood eosinophils
T2 sequence (P51677 1-355): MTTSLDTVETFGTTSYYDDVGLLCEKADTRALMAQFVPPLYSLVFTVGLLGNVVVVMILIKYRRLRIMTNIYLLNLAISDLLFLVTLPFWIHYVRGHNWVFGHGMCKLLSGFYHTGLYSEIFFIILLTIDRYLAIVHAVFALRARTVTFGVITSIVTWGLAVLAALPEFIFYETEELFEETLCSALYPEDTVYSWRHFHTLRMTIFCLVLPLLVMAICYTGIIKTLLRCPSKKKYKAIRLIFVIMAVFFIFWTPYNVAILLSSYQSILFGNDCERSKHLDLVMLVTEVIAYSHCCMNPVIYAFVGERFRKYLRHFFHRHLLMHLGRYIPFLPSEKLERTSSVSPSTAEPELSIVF
Protocol: Human Eosinophil Chemotaxis
Human eosinophils were isolated from EDTA anticoagulated peripheral blood as previously described (Hansel et al., J. Immunol. Methods, 1991, 145, 105-110). The cells were resuspended at 10×10^6 mL-1 in RPMI containing 200 IU/mL penicillin, 200 μg/mL streptomycin sulfate and supplemented with 10% HIFCS, at room temperature.
Eosinophils (700 μl) were pre-incubated for 15 mins at 37° C. with 7 μl of either vehicle or compound (100× required final concentration in 10% DMSO). […] The filter was then placed over the wells and 25 μl of eosinophil suspension were added to the top of the filter. The plate was incubated for 1 hr at 37° C. in a humidified incubator with a 95% air/5% CO2, atmosphere to allow chemotaxis.
The medium, containing cells that had not migrated, was carefully aspirated from above the filter and discarded. The filter was washed once with phosphate buffered saline (PBS) containing 5 mM EDTA to remove any adherent cells. Cells that had migrated through the filter were pelleted by centrifugation (300×g for 5 mins at room temperature) and the filter removed and the supernatant transferred to each well of a 96-well plate (Costar). The pelleted cells were lysed by the addition of 28 μl of PBS containing 0.5% Triton ×100 followed by two cycles of freeze/thawing. The cell lysate was then added to the supernatant. The number of eosinophils migrating was quantified according to the method of Strath et al., J. Immunol. Methods, 1985, 83, 209 by measuring eosinophil peroxidase activity in the supernatant.

SMILES: COc1ccccc1C(C(=O)O)N1CCC(CN2CCC(Oc3ccc(Cl)cc3C)CC2)CC1 (stereo not drawn) [Example 10, 4-[[4-(4-Chloro-2-methylphenoxy)-1-piperidinyl]methyl]-α-(2-methoxyphenyl)-1-piperidineacetic acid]
Ki (human H1 receptor): 251 nM
inhibition at 1 µM (CCR3): 108%

SMILES: Cc1c(Cl)ccc(OC2CCN(CC3CCN(C(C(=O)O)c4ccccc4)CC3)CC2)c1Cl (stereo not drawn) [Example 2, 4-[[4-(2,4-Dichloro-3-methylphenoxy)-1-piperidinyl]methyl]-α-phenyl-1-piperidineacetic acid]
Ki (human H1 receptor): 31.6 nM

SMILES: COc1ncc(C(C(=O)O)N2CCC(CN3CCC(Oc4ccc(Cl)c(Cl)c4)CC3)CC2)c(OC)n1 (stereo not drawn) [Example 12, α-[4-[[4-(3,4-Dichlorophenoxy)-1-piperidinyl]methyl]-1-piperidinyl]-2,4-dimethoxy-5-pyrimidineacetic acid]
Ki (human H1 receptor): 200 nM

SMILES: Cc1c(Cl)ccc(OC2CCN(CC3CCN(C(C(=O)O)c4ccc(F)cc4)CC3)CC2)c1Cl (stereo not drawn) [Example 15, 4-[[4-(2,4-Dichloro-3-methylphenoxy)-1-piperidinyl]methyl]-α-(4-fluorophenyl)-1-piperidineacetic acid]
Ki (human H1 receptor): 25.1 nM

SMILES: Cc1ccc(C(C(=O)O)N2CCC(CN3CCC(Oc4ccc(Cl)c(C)c4Cl)CC3)CC2)cc1 (stereo not drawn) [Example 9, 4-[[4-(2,4-Dichloro-3-methylphenoxy)-1-piperidinyl]methyl]-α-(4-methylphenyl)-1-piperidineacetic acid]
Ki (human H1 receptor): 31.6 nM

SMILES: COc1ccccc1C(C(=O)O)N1CCC(CN2CCC(Oc3ccc(Cl)c(Cl)c3)CC2)CC1 (stereo not drawn) [Example 4, 4-[[4-(3,4-Dichlorophenoxy)-1-piperidinyl]methyl]-α-(2-methoxyphenyl)-1-piperidineacetic acid]
Ki (human H1 receptor): 100 nM
inhibition at 1 µM (CCR3): 90%

SMILES: COc1ccccc1C(C(=O)O)N1CCC(CN2CCC(Oc3ccc(Cl)c(C)c3Cl)CC2)CC1 (stereo not drawn) [Example 7, 4-[[4-(2,4-Dichloro-3-methylphenoxy)-1-piperidinyl]methyl]-α-(2-methoxyphenyl)-1-piperidineacetic acid]
Ki (human H1 receptor): 79.4 nM

SMILES: Cc1ccccc1C(C(=O)O)N1CCC(CN2CCC(Oc3ccc(Cl)c(Cl)c3)CC2)CC1 (stereo not drawn) [Example 5, 4-[[4-(3,4-Dichlorophenoxy)-1-piperidinyl]methyl]-α-(2-methylphenyl)-1-piperidineacetic acid]
Ki (human H1 receptor): 79.4 nM

SMILES: Cc1ccc(C(C(=O)O)N2CCC(CN3CCC(Oc4ccc(Cl)c(Cl)c4)CC3)CC2)cc1 (stereo not drawn) [Example 6, 4-[[4-(3,4-Dichlorophenoxy)-1-piperidinyl]methyl]-α-(4-methylphenyl)-1-piperidineacetic acid]
Ki (human H1 receptor): 20 nM

SMILES: Cc1ccc(C(C(=O)O)N2CCC(CN3CCC(Oc4ccc(Cl)cc4C)CC3)CC2)cc1 (stereo not drawn) [Example 13, 4-[[4-(4-Chloro-2-methylphenoxy)-1-piperidinyl]methyl]-α-(4-methylphenyl)-1-piperidineacetic acid]
Ki (human H1 receptor): 25.1 nM
inhibition at 1 µM (CCR3): 87%

SMILES: CC(=O)Nc1cccc(C(C(=O)O)N2CCC(CN3CCC(Oc4ccc(Cl)c(Cl)c4)CC3)CC2)c1 (stereo not drawn) [Example 14, α-[3-(Acetylamino)phenyl]-4-[[4-(3,4-dichlorophenoxy)-1-piperidinyl]methyl]-1-piperidineacetic acid]
Ki (human H1 receptor): 25.1 nM

SMILES: Cc1ccccc1C(C(=O)O)N1CCC(CN2CCC(Oc3ccc(Cl)c(C)c3Cl)CC2)CC1 (stereo not drawn) [Example 8, 4-[[4-(2,4-Dichloro-3-methylphenoxy)-1-piperidinyl]methyl]-α-(2-methylphenyl)-1-piperidineacetic acid]
Ki (human H1 receptor): 50.1 nM

SMILES: O=C(O)C(c1ccc(F)cc1)N1CCC(CN2CCC(Oc3ccc(Cl)c(Cl)c3)CC2)CC1 (stereo not drawn) [Example 3, 4-[[4-(3,4-Dichlorophenoxy)-1-piperidinyl]methyl]-α-(4-fluorophenyl)-1-piperidineacetic acid]
Ki (human H1 receptor): 39.8 nM

SMILES: Cc1cc(Cl)ccc1OC1CCN(CC2CCN(C(C(=O)O)c3ccccc3C)CC2)CC1 (stereo not drawn) [Example 11, 4-[[4-(4-Chloro-2-methylphenoxy)-1-piperidinyl]methyl]-α-(2-methylphenyl)-1-piperidineacetic acid]
Ki (human H1 receptor): 158 nM

Now from value to compound:

Ki (human H1 receptor): 39.8 nM
SMILES: Clc1ccc(OC2CCN(CC3CCN(Cc4nn[nH]n4)CC3)CC2)cc1Cl [Example 100, 4-(3,4-dichlorophenoxy)-1-[[1-(2H-tetrazol-5-ylmethyl)-4-piperidinyl]methyl]-piperidine]

Ki (human H1 receptor): 100 nM
SMILES: O=C(O)CN1CCC(O)(CN2CCC(Oc3ccc(Cl)c(Cl)c3)CC2)CC1 [Example 82, 4-[[4-(3,4-Dichlorophenoxy)-1-piperidinyl]methyl]-4-hydroxy-1-piperidineacetic acid]

Ki (human H1 receptor): 200 nM
SMILES: Cc1c(Cl)ccc(OC2CCN(CC3CCN(CC(=O)O)CC3)CC2)c1Cl [Example 78, 4-[[4-(2,4-Dichloro-3-methylphenoxy)-1-piperidinyl]methyl]-1-piperidineacetic acid]

Ki (human H1 receptor): 126 nM
SMILES: COC(=O)CN1CCC(CN2CCC(Oc3ccc(Cl)cc3C)CC2)CC1 [Example 69, Methyl-4-[[4-(4-chloro-2-methylphenoxy)-1-piperidinyl]methyl]-1-piperidineacetate]

Ki (human H1 receptor): 20 nM
SMILES: O=S(=O)(NCCCN1CCC(CN2CCC(Oc3ccc(Cl)c(Cl)c3)CC2)CC1)C(F)(F)F [Example 103, N-[3-[4-[[4-(3,4-Dichlorophenoxy)-1-piperidinyl]methyl]-1-piperidinyl]propyl]-1,1,1-trifluoro-methanesulfonamide]

Ki (human H1 receptor): 10 nM
SMILES: COC(=O)c1ccccc1CN1CCC(CN2CCC(Oc3ccc(Cl)c(Cl)c3)CC2)CC1 [Example 42, methyl 2-[(4-{[4-(3,4-dichlorophenoxy)piperidin-1-yl]methyl}piperidin-1-yl)methyl]benzoate]

Ki (human H1 receptor): 15.8 nM
SMILES: Cc1ccc(C(C(=O)O)N2CCC(O)(CN3CCC(Oc4ccc(Cl)c(Cl)c4)CC3)CC2)cc1 (stereo not drawn) [Example 18, 4-[[4-(3,4-Dichlorophenoxy)-1-piperidinyl]methyl]-4-hydroxy-α-(4-methylphenyl)-1-piperidineacetic acid]

Ki (human H1 receptor): 10 nM
SMILES: O=C(O)C(c1ccccc1)N1CCC(O)(CN2CCC(Oc3ccc(Cl)c(Cl)c3)CC2)CC1 (stereo not drawn) [Example 17, 4-[[4-(3,4-Dichlorophenoxy)-1-piperidinyl]methyl]-4-hydroxy-α-phenyl-1-piperidineacetic acid]

Ki (human H1 receptor): 200 nM
SMILES: C[C@@H](C(=O)O)N1CCC(CN2CCC(Oc3ccc(Cl)c(Cl)c3)CC2)CC1 [Example 84, (2S)-2-(4-{[4-(3,4-Dichlorophenoxy)piperidin-1-yl]methyl}piperidin-1-yl)propanoic acid]

Ki (human H1 receptor): 126 nM
SMILES: O=C(O)CN1CCC(CN2CCC(Oc3ccc(Cl)c(Cl)c3)CC2)CC1 [Example 77, 4-[[4-(3,4-dichlorophenoxy)-1-piperidinyl]methyl]-1-piperidineacetic acid]

Ki (human H1 receptor): 7.94 nM
SMILES: COc1ccccc1C(C(=O)O)N1CCC(O)(CN2CCC(Oc3ccc(Cl)c(Cl)c3)CC2)CC1 (stereo not drawn) [Example 19, 4-[[4-(3,4-Dichlorophenoxy)-1-piperidinyl]methyl]-4-hydroxy-α-(2-methoxyphenyl)-1-piperidineacetic acid]
